In paper PMC11852993, “Discovery of small molecules against porcine reproductive and respiratory syndrome virus replication by targeting NendoU activity” (Journal of Virology, 2024):
pIC50, pKd: −log10 of the molar value. Read-outs that look alike come from different tables or passages of the source.

Key:
VR-NSP11 [1] = target: T1, VR-NSP11 (PRRSV VR2332, UniProt Q9WJB2); assay: microscale thermophoresis; type: binding
T1 construct: gene rep; mature NSP11 cut from replicase polyprotein 1ab (ORF1b part); N-terminal 6xHN tag (pET6xHN-N), expressed in E. coli BL21(DE3), TALON purified
T1 sequence (Q9WJB2 3585-3807): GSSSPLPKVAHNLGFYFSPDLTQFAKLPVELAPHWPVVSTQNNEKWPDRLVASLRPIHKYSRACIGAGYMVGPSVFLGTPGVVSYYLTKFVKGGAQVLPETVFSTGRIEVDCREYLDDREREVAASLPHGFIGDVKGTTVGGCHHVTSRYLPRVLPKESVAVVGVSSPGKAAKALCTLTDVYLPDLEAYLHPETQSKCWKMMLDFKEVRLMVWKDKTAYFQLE
Description: microscale thermophoresis on VR-NSP11 | The MST analysis confirmed a direct interaction between VR-NSP11 and both compounds

VR-NSP11 [2] = target: T1, VR-NSP11; assay: FRET NendoU assay (6-FAM/BHQ-1 RNA R23.[…]); type: biochemical

Work on `CCc1c(C)nc(Nc2nc(C)c3ccc(OC)cc3n2)nc1O` [A8-A2] yielded a pKd (VR-NSP11 [1]) of 4.64 and a pIC50 (VR-NSP11 [2]; read-out: IC50) of 4.61.
For `COc1ccc2c(C)nc(Nc3nc(C)c(C)c(=O)[nH]3)nc2c1` [Madrasin], the IC50 (VR-NSP11 [2]; fluorescence at 2 h, 1 µM R23.1, HEPES pH 7.5, 50 mM KCl, 1 mM DTT, 25 °C, 1.2 µM enzyme) was “these IC50 values are higher than those of C5 and Madrasin”.
